Measured values reported in PubChem BioAssay (NCI).
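Compound exposure: 48 hours, 5 concentrations, 96-well plates. TGI is the concentration that stops growth completely.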

What was measured:
Experiment in all cases: DTP human tumour cell line panel, 48 h
786-0 renal = tested on: 786-0 renal
A498 renal = tested on: A498 renal
A549 NSCLC = tested on: A549 NSCLC
ACHN renal = tested on: ACHN renal
CAKI-1 renal = tested on: CAKI-1 renal
COLO 205 colon = tested on: COLO 205 colon
DLD-1 colon = tested on: DLD-1 colon
DMS 114 small cell lung = tested on: DMS 114 small cell lung
DMS 273 small cell lung = tested on: DMS 273 small cell lung
EKVX NSCLC = tested on: EKVX NSCLC
HCC-2998 colon = tested on: HCC-2998 colon
HCT-116 colon = tested on: HCT-116 colon
HCT-15 colon = tested on: HCT-15 colon
HL-60(TB) leukemia = tested on: HL-60(TB) leukemia
HOP-62 NSCLC = tested on: HOP-62 NSCLC
HOP-92 NSCLC = tested on: HOP-92 NSCLC
HT29 colon = tested on: HT29 colon
IGROV1 ovarian = tested on: IGROV1 ovarian
K-562 leukemia = tested on: K-562 leukemia
KM12 colon = tested on: KM12 colon
KM20L2 colon = tested on: KM20L2 colon
LOX IMVI melanoma = tested on: LOX IMVI melanoma
LXFL 529 NSCLC = tested on: LXFL 529 NSCLC
M14 melanoma = tested on: M14 melanoma
M19-MEL melanoma = tested on: M19-MEL melanoma
MALME-3M melanoma = tested on: MALME-3M melanoma
MOLT-4 leukemia = tested on: MOLT-4 leukemia
NCI-H226 lung = tested on: NCI-H226 lung
NCI-H23 lung = tested on: NCI-H23 lung
NCI-H460 lung = tested on: NCI-H460 lung
NCI-H522 lung = tested on: NCI-H522 lung
OVCAR-3 ovarian = tested on: OVCAR-3 ovarian
OVCAR-4 ovarian = tested on: OVCAR-4 ovarian
OVCAR-5 ovarian = tested on: OVCAR-5 ovarian
OVCAR-8 ovarian = tested on: OVCAR-8 ovarian
RPMI-8226 leukemia = tested on: RPMI-8226 leukemia
RXF 393 renal = tested on: RXF 393 renal
SF-268 CNS = tested on: SF-268 CNS
SF-295 CNS = tested on: SF-295 CNS
SF-539 CNS = tested on: SF-539 CNS
SK-MEL-28 melanoma = tested on: SK-MEL-28 melanoma
SK-MEL-5 melanoma = tested on: SK-MEL-5 melanoma
SK-OV-3 ovarian = tested on: SK-OV-3 ovarian
SN12C renal = tested on: SN12C renal
SNB-19 CNS = tested on: SNB-19 CNS
SNB-75 CNS = tested on: SNB-75 CNS
SNB-78 CNS = tested on: SNB-78 CNS
SR leukemia = tested on: SR leukemia
SW-620 colon = tested on: SW-620 colon
TK-10 renal = tested on: TK-10 renal
U251 CNS = tested on: U251 CNS
UACC-257 melanoma = tested on: UACC-257 melanoma
UACC-62 melanoma = tested on: UACC-62 melanoma
UO-31 renal = tested on: UO-31 renal
XF 498 CNS = tested on: XF 498 CNS
CCRF-CEM leukemia = tested on: CCRF-CEM leukemia
HOP-18 NSCLC = tested on: HOP-18 NSCLC
RXF-631 renal = tested on: RXF-631 renal
SK-MEL-2 melanoma = tested on: SK-MEL-2 melanoma

For `O=C(CSSCC(=O)Nc1ccc(Br)cc1)Nc1ccc(Br)cc1`, the TGI (786-0 renal) was 31.4 µM, the TGI (A498 renal) was 34.1 µM and the TGI (A549 NSCLC) was 35.8 µM. For the same molecule, the TGI (ACHN renal) was 30 µM, the TGI (CAKI-1 renal) was 50.3 µM and the TGI (COLO 205 colon) was 74 µM. It also gave a TGI (DLD-1 colon) of 35.9 µM, a TGI (DMS 114 small cell lung) of 28.2 µM and a TGI (DMS 273 small cell lung) of 30.8 µM. It also gave a TGI (EKVX NSCLC) of 48.9 µM, a TGI (HCC-2998 colon) of 50.6 µM and a TGI (HCT-116 colon) of 28.1 µM. The TGI (HCT-15 colon) was 46.6 µM, the TGI (HL-60(TB) leukemia) was 48.5 µM and the TGI (HOP-62 NSCLC) was 25.9 µM. The TGI (HOP-92 NSCLC) was 34.1 µM, the TGI (HT29 colon) was 47.6 µM and the TGI (IGROV1 ovarian) was 39 µM. The TGI (K-562 leukemia) was greater than 100 µM, the TGI (KM12 colon) was 55.4 µM and the TGI (KM20L2 colon) was 29.2 µM. For the same molecule, the TGI (LOX IMVI melanoma) was 26.3 µM, the TGI (LXFL 529 NSCLC) was 31.2 µM and the TGI (M14 melanoma) was 32.7 µM. It also gave a TGI (M19-MEL melanoma) of 34.2 µM, a TGI (MALME-3M melanoma) of 43 µM and a TGI (MOLT-4 leukemia) of 67 µM. It also gave a TGI (NCI-H226 lung) of 31.7 µM, a TGI (NCI-H23 lung) of 35.2 µM and a TGI (NCI-H460 lung) of 37.7 µM. For the same molecule, the TGI (NCI-H522 lung) was 24.8 µM, the TGI (OVCAR-3 ovarian) was 32.1 µM and the TGI (OVCAR-4 ovarian) was 35.4 µM. The TGI (OVCAR-5 ovarian) was 41.7 µM, the TGI (OVCAR-8 ovarian) was 31.6 µM and the TGI (RPMI-8226 leukemia) was 64.3 µM. For the same molecule, the TGI (RXF 393 renal) was 33.2 µM, the TGI (SF-268 CNS) was 26.6 µM and the TGI (SF-295 CNS) was 28 µM. For the same molecule, the TGI (SF-539 CNS) was 31.6 µM, the TGI (SK-MEL-28 melanoma) was 32.4 µM and the TGI (SK-MEL-5 melanoma) was 45.8 µM. For the same molecule, the TGI (SK-OV-3 ovarian) was 40 µM, the TGI (SN12C renal) was 30.2 µM and the TGI (SNB-19 CNS) was 29.4 µM. The TGI (SNB-75 CNS) was 40.1 µM, the TGI (SNB-78 CNS) was 32.5 µM and the TGI (SR leukemia) was 37.9 µM. It also gave a TGI (SW-620 colon) of 29.4 µM, a TGI (TK-10 renal) of 30.5 µM and a TGI (U251 CNS) of 27.6 µM. For the same molecule, the TGI (UACC-257 melanoma) was 37.6 µM, the TGI (UACC-62 melanoma) was 29.3 µM and the TGI (UO-31 renal) was 31.8 µM. It also gave a TGI (XF 498 CNS) of 34.5 µM.

`O=C1C(=O)N(c2ccc(Cl)cc2)C(=O)C(=Nc2cccc3c(=O)[nH][nH]c(=O)c23)C1c1nc2ccccc2o1` (stereo not given) gave a TGI (786-0 renal) greater than 100 µM, a TGI (A498 renal) greater than 100 µM and a TGI (A549 NSCLC) greater than 100 µM. The TGI (ACHN renal) was greater than 100 µM, the TGI (CAKI-1 renal) was greater than 100 µM and the TGI (CCRF-CEM leukemia) was greater than 100 µM. For the same molecule, the TGI (COLO 205 colon) was greater than 100 µM, the TGI (DLD-1 colon) was greater than 100 µM and the TGI (DMS 273 small cell lung) was greater than 100 µM. It also gave a TGI (EKVX NSCLC) greater than 100 µM, a TGI (HCC-2998 colon) greater than 100 µM and a TGI (HCT-116 colon) greater than 100 µM. It also gave a TGI (HCT-15 colon) greater than 100 µM, a TGI (HL-60(TB) leukemia) greater than 100 µM and a TGI (HOP-18 NSCLC) greater than 100 µM. It also gave a TGI (HOP-62 NSCLC) greater than 100 µM, a TGI (HOP-92 NSCLC) greater than 100 µM and a TGI (HT29 colon) greater than 100 µM. For the same molecule, the TGI (IGROV1 ovarian) was greater than 100 µM, the TGI (K-562 leukemia) was greater than 100 µM and the TGI (KM12 colon) was greater than 100 µM. For the same molecule, the TGI (KM20L2 colon) was greater than 100 µM, the TGI (LOX IMVI melanoma) was greater than 100 µM and the TGI (LXFL 529 NSCLC) was greater than 100 µM. For the same molecule, the TGI (M14 melanoma) was greater than 100 µM, the TGI (M19-MEL melanoma) was greater than 100 µM and the TGI (MALME-3M melanoma) was greater than 100 µM. For the same molecule, the TGI (MOLT-4 leukemia) was greater than 100 µM, the TGI (NCI-H226 lung) was greater than 100 µM and the TGI (NCI-H23 lung) was greater than 100 µM. It also gave a TGI (NCI-H460 lung) greater than 100 µM, a TGI (OVCAR-3 ovarian) greater than 100 µM and a TGI (OVCAR-4 ovarian) greater than 100 µM. It also gave a TGI (OVCAR-5 ovarian) greater than 100 µM, a TGI (OVCAR-8 ovarian) greater than 100 µM and a TGI (RPMI-8226 leukemia) greater than 100 µM. The TGI (RXF-631 renal) was greater than 100 µM, the TGI (SF-268 CNS) was greater than 100 µM and the TGI (SF-295 CNS) was greater than 100 µM. For the same molecule, the TGI (SF-539 CNS) was greater than 100 µM, the TGI (SK-MEL-2 melanoma) was greater than 100 µM and the TGI (SK-MEL-28 melanoma) was greater than 100 µM. For the same molecule, the TGI (SK-MEL-5 melanoma) was greater than 100 µM, the TGI (SK-OV-3 ovarian) was greater than 100 µM and the TGI (SN12C renal) was greater than 100 µM. The TGI (SNB-19 CNS) was greater than 100 µM, the TGI (SNB-75 CNS) was greater than 100 µM and the TGI (SNB-78 CNS) was greater than 100 µM. The TGI (SR leukemia) was greater than 100 µM, the TGI (SW-620 colon) was greater than 100 µM and the TGI (TK-10 renal) was greater than 100 µM. For the same molecule, the TGI (U251 CNS) was greater than 100 µM, the TGI (UACC-257 melanoma) was greater than 100 µM and the TGI (UACC-62 melanoma) was greater than 100 µM. It also gave a TGI (UO-31 renal) greater than 100 µM.
